The target of assay [1] is T1, BMPR2 (Homo sapiens, UniProt Q13873).
T1 construct: purchased G&P Biosciences
T1 sequence (Q13873 27-150 limits assumed): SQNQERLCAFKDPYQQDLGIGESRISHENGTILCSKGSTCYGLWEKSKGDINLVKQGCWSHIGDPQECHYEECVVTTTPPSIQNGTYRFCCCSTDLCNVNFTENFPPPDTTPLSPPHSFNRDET
As to the kind of experiment: Enzyme-linked immune sorbent assay for receptor binding (BMPR2). As to conditions: peptide on p3 of M13 phage; absorbance 450 nm; n=4; vs wild type phage. The text has this:
Groups having the same lowercase letter assigned (above the bar) were not statistically different from each other. Groups having different letters assigned (above the bar) were statistically different from each other. […] The primary antibody was mouse anti-g3p (p8) IgG. The secondary antibody was anti-mouse IgG conjugated with horseradish peroxidase. The substrate, 3,3′,5,5′-Tetramethylbenzidine was detected at 450 nm after stopping the reaction with 1 M HCl.
Blocking buffer (0.1 M NaHCO3 (pH 8.6), 5 mg/ml BSA. Filter sterilized, stored at 4° C.) was prepared. TBS (50 mM Tris-HCl (pH 7.5), 150 mM NaCl, autoclaved, stored at room temperature) was prepared. Separate solutions of the target receptors were then made. For BMPR1A, a 10 μg/ml stock solution was made. For BMPR2, a 10 μg/ml solution was also made. Separate wells with n=4 for each different peptide bearing phage group were then coated with one of the receptors. […] After a brief pilot test, it should be noted that using 10^10 phage/ml was determined to work best, but other concentrations of virus also worked consistently. […] Then, […] of freshly prepared 3,3′,5,5′-Tetramethylbenzidine (TMB) was added to each well and the absorbance at 370 nm and 652 nm was monitored for 1 hour using an ELISA plate reader. […] The absorbance at 450 nm for each well was then measured.

In assay [2] the test system is hMSCs. In words: Immunofluorescence of osteoblast marker proteins. The class given is cell-based, human. Particulars: hMSCs on phage films, 26 days, basal media. The text has this:
OPN was detected with the primary antibody for OPN (RbpAB to osteopontin ab8448 from Abcam). The secondary antibody used was Goat Anti-Rabbit IgG H&L (Alexa Fluor 555) (ab150078) from Abcam (red). OCN was detected with the primary antibody for OCN [OC4-30] (ab13418) from Abcam). The secondary antibody used was Goat Anti-Mouse IgG H&L (Dylight 650) preadsorbed from abcam ab96882 (red). COL was detected using a primary antibody for COL (RbpAb to collagen 1 ab34710). The secondary antibody used was Goat Anti-Rabbit IgG H&L (Alexa Fluor 555) (ab150078) from abcam (red). Cell nuclei were stained by DAPI (blue) for all samples, and actin was stained by phalloidin (green).
This procedure can be scaled for any size well plates or petri dish, but the volumes included are for 96-well tissue culture plates. […]
After culturing hMSCs on phage films for 26 days, the cells were fixed with 4% paraformaldehyde (10 min) and permeabilized with 0.2% Triton X-100 (2 min) at room temperature. […] The osteogenic protein markers osteopontin (OPN), osteocalcin (OCN), and collagen type 1A (COL) were detected through immunofluorescence. OPN was detected with the primary antibody for OPN (RbpAB to osteopontin ab8448 from Abcam). […] OCN was detected with the primary antibody for OCN [OC4-30] […] COL was detected using a primary antibody for COL (RbpAb to collagen 1 ab34710). […]

The values below come from US20210369812A1, “OSTEOINDUCTIVE PEPTIDES, COMPOSITIONS, IMPLANTS, AND METHODS OF USE” (The Board of Regents of the University of Oklahoma, priority 2018, published 2021).

On to “SGTQDSMVGWNK (Completely synthesized in the lab - Ph.D.-12 Phage Display Peptide Library Kit (New England Biolabs))”, for which the “Relative binding strength in ELISA to BMPR2” value in assay [1] is on record as “statistically significant binders”. In the case of “VHVPLHRGAVSA (Completely synthesized in the lab - Ph.D.-12 Phage Display Peptide Library Kit (New England Biolabs))”, in assay [2], the “Osteocalcin protein expression (immunofluorescence)” value is listed as “slightly greater osteocalcin production”; the “Osteopontin protein expression (immunofluorescence)” value was “qualitatively higher level of osteopontin protein expression than the other groups and a higher expression than the positive control”.
